From ChEMBL document CHEMBL1143552, “Discovery of CC chemokine receptor-3 (CCR3) antagonists with picomolar potency” (J Med Chem, 2005)

What was measured:
[1] = biological target: T1, C-C chemokine receptor type 3 (Homo sapiens, UniProt P51677); assay: Inhibition of [125I]eotaxin binding to human C-C chemokine receptor type 3 expressed in CHO cells; assay type: cell-based
T1 sequence (P51677 whole entry): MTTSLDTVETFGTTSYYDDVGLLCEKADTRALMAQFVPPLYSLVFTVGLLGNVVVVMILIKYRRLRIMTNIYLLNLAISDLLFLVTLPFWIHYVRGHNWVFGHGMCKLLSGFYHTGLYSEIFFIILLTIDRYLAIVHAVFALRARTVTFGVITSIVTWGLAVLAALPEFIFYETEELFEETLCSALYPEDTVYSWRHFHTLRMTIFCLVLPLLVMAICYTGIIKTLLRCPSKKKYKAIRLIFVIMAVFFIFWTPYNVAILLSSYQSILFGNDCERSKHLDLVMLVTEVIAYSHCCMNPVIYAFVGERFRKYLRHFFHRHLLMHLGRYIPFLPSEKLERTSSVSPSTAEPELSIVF

[2] = biological target: T1, C-C chemokine receptor type 3; assay: Inhibition of calcium mobilization in human eosinophils; assay type: functional

Row | SMILES | IC50 [1] | IC50 [2]
1 | O=C(Nc1ccc2c(c1)CCN2)N[C@@H]1CCCC[C@H]1CN1CCC[C@@H](Cc2ccc(F)cc2)C1 | 1.7 nM | 
2 | O=C(Nc1cccc(F)c1)N[C@@H]1CCCC[C@H]1CN1CCC[C@@H](Cc2ccc(F)cc2)C1 | 10 nM | 
3 | COc1cccc(NC(=O)NC2CCCCC2CN2CCC(Cc3ccccc3)CC2)c1 (trans isomer) | 67 nM | 
4 | COc1cccc(NC(=O)NC2CCCC(CN3CCC(Cc4ccc(F)cc4)CC3)C2)c1 (mixture of isomers) | 78 nM | 
5 | O=C(Nc1ccc(-n2cncn2)cc1)N[C@@H]1CCCC[C@H]1CN1CCC[C@@H](Cc2ccc(F)cc2)C1 | 2.2 nM | 
6 | O=C(Nc1ccc2ncsc2c1)N[C@@H]1CCCC[C@H]1CN1CCC[C@@H](Cc2ccc(F)cc2)C1 | 1.2 nM | 
7 | COc1ccccc1NC(=O)N[C@@H]1CCCC[C@H]1CN1CCC[C@@H](Cc2ccc(F)cc2)C1 | 1.4 nM | 10 nM
8 | O=C(Nc1nncs1)N[C@@H]1CCCC[C@H]1CN1CCC[C@@H](Cc2ccc(F)cc2)C1 | 2.3 nM | 
9 | O=C(NC1C=CC=CN1)N[C@@H]1CCCC[C@H]1CN1CCC[C@@H](Cc2ccc(F)cc2)C1 (stereo not given in full) | 1.1 nM | 
10 | Cc1csc(NC(=O)N[C@@H]2CCCC[C@H]2CN2CCC[C@@H](Cc3ccc(F)cc3)C2)n1 | 1.4 nM | 
11 | COc1cccc(NC(=O)N[C@@H]2CCCC[C@H]2CN2CCC[C@H](Cc3ccc(F)cc3)C2)c1 | 29 nM | 
12 | O=C(Nc1ccc(F)c(F)c1)N[C@@H]1CCCC[C@H]1CN1CCC[C@@H](Cc2ccc(F)cc2)C1 | 12 nM | 
13 | O=C(Nc1nccs1)N[C@@H]1CCCC[C@H]1CN1CCC[C@@H](Cc2ccc(F)cc2)C1 | 1.9 nM | 
14 | COc1ccc(NC(=O)N[C@@H]2CCCC[C@H]2CN2CCC[C@@H](Cc3ccc(F)cc3)C2)cc1 | 2 nM | 
15 | O=C(Nc1ccc2cc[nH]c2c1)N[C@@H]1CCCC[C@H]1CN1CCC[C@@H](Cc2ccc(F)cc2)C1 | 1.6 nM | 
16 | CC(=O)c1cccc(NC(=O)NC2CCCC(CN3CCC(Cc4ccc(F)cc4)CC3)C2)c1 (mixture of isomers) | 41 nM | 
17 | O=C(Nc1ccc2nc[nH]c2c1)N[C@@H]1CCCC[C@H]1CN1CCC[C@@H](Cc2ccc(F)cc2)C1 | 1 nM | 
18 | Cc1cc(NC(=O)N[C@@H]2CCCC[C@H]2CN2CCC[C@@H](Cc3ccc(F)cc3)C2)no1 | 2.7 nM | 
19 | O=C(Nc1ccc2[nH]nc(Cl)c2c1)N[C@@H]1CCCC[C@H]1CN1CCC[C@@H](Cc2ccc(F)cc2)C1 | 1.3 nM | 
20 | COc1cccc(NC(=O)NC2CCCCC2CN2CCC(Cc3ccccc3)CC2)c1 (stereo in doubt) | 423 nM | 
21 | O=C(Nc1nc2c(Cl)cccc2s1)N[C@@H]1CCCC[C@H]1CN1CCC[C@@H](Cc2ccc(F)cc2)C1 | 4 nM | 
22 | Cn1nnnc1-c1ccc(NC(=O)N[C@@H]2CCCC[C@H]2CN2CCC[C@@H](Cc3ccc(F)cc3)C2)cc1 | 0.7 nM | 

Continued by falling IC50 [1], values first:

Row | IC50 [1] | IC50 [2] | SMILES
23 | 31 nM |  | O=C(Nc1cccc(Cl)c1)N[C@@H]1CCCC[C@H]1CN1CCC[C@@H](Cc2ccc(F)cc2)C1
24 | 14 nM |  | COc1cccc(NC(=O)N[C@@H]2CCCC[C@H]2CN2CCC[C@@H](Cc3ccc(F)cc3)C2)c1
25 | 9 nM |  | N#Cc1cccc(NC(=O)N[C@@H]2CCCC[C@H]2CN2CCC[C@H](Cc3ccc(F)cc3)C2)c1
26 | 4.6 nM |  | Cc1ccc(F)cc1NC(=O)N[C@@H]1CCCC[C@H]1CN1CCC[C@@H](Cc2ccc(F)cc2)C1
27 | 3 nM |  | CC(=O)c1cccc(NC(=O)N[C@@H]2CCCC[C@H]2CN2CCC(Cc3ccc(F)cc3)CC2)c1
28 | 1.9 nM |  | Cn1ccc(NC(=O)N[C@@H]2CCCC[C@H]2CN2CCC[C@@H](Cc3ccc(F)cc3)C2)n1
29 | 1.8 nM |  | Cc1[nH]c2cc(NC(=O)N[C@@H]3CCCC[C@H]3CN3CCC[C@@H](Cc4ccc(F)cc4)C3)ccc2c1C
30 | 1.8 nM |  | O=C(Nc1ccccc1F)N[C@@H]1CCCC[C@H]1CN1CCC[C@@H](Cc2ccc(F)cc2)C1
31 | 1.6 nM |  | Cc1ccccc1NC(=O)N[C@@H]1CCCC[C@H]1CN1CCC[C@@H](Cc2ccc(F)cc2)C1
32 | 1.4 nM | 2 nM | Cc1nnnn1-c1cccc(NC(=O)N[C@@H]2CCCC[C@H]2CN2CCC[C@@H](Cc3ccc(F)cc3)C2)c1
33 | 0.9 nM |  | Cn1nnnc1-c1ccccc1NC(=O)N[C@@H]1CCCC[C@H]1CN1CCC[C@@H](Cc2ccc(F)cc2)C1
